Measured values from patent US5565432A (American Home Products Corporation, priority 1994, dated 1996).
Where a name gives a salt, the structure may show the parent alone.

Experiments:
[1] = system: common carotid artery, intimal thickening; assay: Experimental model of restenosis (air-dried carotid artery), intimal thickening; format: in vivo, Male Sprague-Dawley Rats; settings: in comparison to untreated animals; dose of 125 μg/mL, i.v. osmotic pump, 2 weeks
Excerpt: Male Sprague-Dawley Rats weighing between 0.3-0.4 kg were housed in polycarbonate cages (2 per box) with corn cob bedding and provided with Purina 5001 rat chow and water (ad. lib. A 12 hr/12 hr light: dark cycle was maintained with light on at 7:00 A.M). After acclimation, rats were randomly assigned to treatment groups (12 per group). The rats were anesthetized with Ketamine, Acepromazone, and Xylazine. The anterior portion of the neck was shaved, a 3 cm incision was made along the midline, and the trachea was exposed by gently parting the underlying tissues and muscle. A retractor was inserted to hold the muscles and tissues aside and the common carotid artery was isolated from the surrounding tissue. A 2 cm segment of the right common carotid artery was lifted such that an 11 mm approximator was placed on the vessel at about […] before the bifurcation of the internal and external branches of the carotid artery. The 5 mm segment of the common carotid artery between the clamps of the approximator was punctured at about 0.5 mm from the edge of each clamp with a 30 G needle and a gentle stream of isotonic saline was injected through the isolated segment to flush out any blood. […]
Two weeks following surgery, the rats were sacrificed via anesthetized exsanquination. […] The cross sections were photographed and the arterial media and intima were digitized and measured. […]

[2] = system: normal human plasma; assay: Anticoagulant activity, partial thromboplastin time (APTT) assay; settings: for Anticoagulation Activity (APTT) Relative to Heparin: ratio>1 indicates weaker activity relative to heparin on a μg/mL basis
Description: The anticlotting activity of the compounds of this invention were evaluated in a partial thromboplastin time (APTT) assay using normal human plasma collected from 5 donors using the procedure of Fenichel et. al. (Clin. Chem. 1964, 10, 69). A BBL Fibrometer automatic precesion coagulation timer utilizing a 0.3 ml probe was employed. An Ellagic acid activated partial thromboplastin was used for these experiments. This reagent is added to human citrated plasma equilibrated at 37° C. in a plastic well in the clot timer. Calcium at 37° C. is added, the clot timer is started and the time for fibrin clot formation (in seconds) was recorded. The effect of the compounds, added to plasma, over a concentration of 12.5-200 μg/mL was determined. […] An unfractionated heparin comparator was used over the concentration range of 1.25-10 μg/mL. Clotting tests at all concentrations were run in triplicate. Analysis of variance for a randomized block design was used to determine the significance of differences observed in the clotting times. The potency is reported relative to heparin wherein ratio>1 indicates weaker activity relative to heparin on a μg/mL basis.

[3] = system: human aortic endothelial cells; assay: Effect on human endothelial cell growth; format: cell-based; settings: driven by 2% FBS, at doses inhibitory towards human smooth muscle cell proliferation driven by 10% FBS (FIG. 1)
Description: The ability of the compounds of the present invention to inhibit smooth muscle cell proliferation and modulate endothelial cell growth was established using isolated aortic cells obtained from commercial sources or, for certain species, prepared in-house. Cell lines used in this study include human and porcine aortic smooth muscle cells and human aortic endothelial cells. Human aortic cell lines were obtained from Clonetics Corporation (San Diego).
Cells were assayed in early passage (generally passage 3-7) at sub-confluent conditions. Cultures were grown in 16 mm (24 well) multi-well culture dishes in media 199 supplemented with 10% fetal bovine serum and 2% antibiotic/antimycotic. At sub-confluence, the cells were placed in a defined serum free medium (AIM-V; Gibco) for 24-48 h prior to initiating the experimental protocol.
Growth factor and serum stimulations were optimized for each cell type.
Compounds were added to each well at 50 fold dilution (20 μL/well) and the plates were incubated for 24-36 h at 37° C. in 5% CO2. […] Compounds were routinely assayed at 1, 10, and 100 μM. […]
Data was obtained, in triplicate, for both control and experimental samples. […] Data was expressed as a percent of control from which IC50 s could be determined. […]

[4] = system: smooth muscle cell; settings: prior art; cited from earlier work
[5] = system: restenosis; settings: prior art; cited from earlier work

Compound: O=C(Nc1cc(CO[C@@H]2O[C@H](COS(=O)(=O)O)[C@@H](O[C@@H]3O[C@H](COS(=O)(=O)O)[C@@H](OS(=O)(=O)O)[C@H](OS(=O)(=O)O)[C@H]3OS(=O)(=O)O)[C@H](OS(=O)(=O)O)[C@H]2OS(=O)(=O)O)ccc1Cl)c1cc(C(=O)Nc2cc(CO[C@@H]3O[C@H](COS(=O)(=O)O)[C@@H](O[C@@H]4O[C@H](COS(=O)(=O)O)[C@@H](OS(=O)(=O)O)[C@H](OS(=O)(=O)O)[C@H]4OS(=O)(=O)O)[C@H](OS(=O)(=O)O)[C@H]3OS(=O)(=O)O)ccc2Cl)cc(C(=O)Nc2cc(CO[C@@H]3O[C@H](COS(=O)(=O)O)[C@@H](O[C@@H]4O[C@H](COS(=O)(=O)O)[C@@H](OS(=O)(=O)O)[C@H](OS(=O)(=O)O)[C@H]4OS(=O)(=O)O)[C@H](OS(=O)(=O)O)[C@H]3OS(=O)(=O)O)ccc2Cl)c1 [Example 11]
- inhibition of intimal thickening [1]: 50%
- Anticoagulation Activity (APTT) Relative to Heparin [2]: 72
- human endothelial cell growth [3]: enhance human endothelial cell growth

Compound: Beta-Cyclodextrin tetradecasulfate
- SMC proliferation inhibition (literature) [4]: smooth muscle cell proliferation inhibitor
- inhibition of restenosis (literature) [5]: effective inhibitor of restenosis

Compound: O=C(Nc1cc(CO[C@@H]2O[C@H](COS(=O)(=O)O)[C@@H](O[C@@H]3O[C@H](COS(=O)(=O)O)[C@@H](OS(=O)(=O)O)[C@H](OS(=O)(=O)O)[C@H]3OS(=O)(=O)O)[C@H](OS(=O)(=O)O)[C@H]2OS(=O)(=O)O)cc(CO[C@@H]2O[C@H](COS(=O)(=O)O)[C@@H](O[C@@H]3O[C@H](COS(=O)(=O)O)[C@@H](OS(=O)(=O)O)[C@H](OS(=O)(=O)O)[C@H]3OS(=O)(=O)O)[C@H](OS(=O)(=O)O)[C@H]2OS(=O)(=O)O)c1)c1cc(C(=O)Nc2cc(CO[C@@H]3O[C@H](COS(=O)(=O)O)[C@@H](O[C@@H]4O[C@H](COS(=O)(=O)O)[C@@H](OS(=O)(=O)O)[C@H](OS(=O)(=O)O)[C@H]4OS(=O)(=O)O)[C@H](OS(=O)(=O)O)[C@H]3OS(=O)(=O)O)cc(CO[C@@H]3O[C@H](COS(=O)(=O)O)[C@@H](O[C@@H]4O[C@H](COS(=O)(=O)O)[C@@H](OS(=O)(=O)O)[C@H](OS(=O)(=O)O)[C@H]4OS(=O)(=O)O)[C@H](OS(=O)(=O)O)[C@H]3OS(=O)(=O)O)c2)cc(C(=O)Nc2cc(CO[C@@H]3O[C@H](COS(=O)(=O)O)[C@@H](O[C@@H]4O[C@H](COS(=O)(=O)O)[C@@H](OS(=O)(=O)O)[C@H](OS(=O)(=O)O)[C@H]4OS(=O)(=O)O)[C@H](OS(=O)(=O)O)[C@H]3OS(=O)(=O)O)cc(CO[C@@H]3O[C@H](COS(=O)(=O)O)[C@@H](O[C@@H]4O[C@H](COS(=O)(=O)O)[C@@H](OS(=O)(=O)O)[C@H](OS(=O)(=O)O)[C@H]4OS(=O)(=O)O)[C@H](OS(=O)(=O)O)[C@H]3OS(=O)(=O)O)c2)c1 [Example 14, Benzene-1,3,5-tricarboxylic Acid Tris{[3,5-bis-(hepta-O-sulfato-β-D-cellobiosyloxymethyl)phenyl]amide}Tetratetracontasodium Salt]
- Anticoagulation Activity (APTT) Relative to Heparin [2]: 3.1

Compound: Cc1ccc(CO[C@@H]2O[C@H](COS(=O)(=O)O)[C@@H](O[C@@H]3O[C@H](COS(=O)(=O)O)[C@@H](OS(=O)(=O)O)[C@H](OS(=O)(=O)O)[C@H]3OS(=O)(=O)O)[C@H](OS(=O)(=O)O)[C@H]2OS(=O)(=O)O)cc1NC(=O)c1cc(C(=O)Nc2cc(CO[C@@H]3O[C@H](COS(=O)(=O)O)[C@@H](O[C@@H]4O[C@H](COS(=O)(=O)O)[C@@H](OS(=O)(=O)O)[C@H](OS(=O)(=O)O)[C@H]4OS(=O)(=O)O)[C@H](OS(=O)(=O)O)[C@H]3OS(=O)(=O)O)ccc2C)cc(C(=O)Nc2cc(CO[C@@H]3O[C@H](COS(=O)(=O)O)[C@@H](O[C@@H]4O[C@H](COS(=O)(=O)O)[C@@H](OS(=O)(=O)O)[C@H](OS(=O)(=O)O)[C@H]4OS(=O)(=O)O)[C@H](OS(=O)(=O)O)[C@H]3OS(=O)(=O)O)ccc2C)c1 [Example 9, Benzene-1,3,5-tricarboxylic Acid Tris{[2-methyl-5-(hepta-O-sulfato-β-cellobiosyloxymethyl)phenyl]amide}Heneicosasodium Salt]
- Anticoagulation Activity (APTT), in words ([2]; at 25-200 μg/mL): no signifcant
